The subject of test [1] is Tel22 (DNA, G4) AGGGTTAGGGTTAGGGTTAGGG
Nature of the test: ITC. The note with it: 10 mM Tris, 1 mM EDTA, pH 7.4, 20 °C.

For test [2], the system named is F21T (DNA, G4) GGGTTAGGGTTAGGGTTAGGG
Briefly: FRET melting. The note with it: 100 mM KCl; 10 mM lithium cacodylate pH 7.2; 1 µM TPE-Im, 200 nM F21T (5:1).

The subject of test [3] is ds43 (DNA, duplex) CGTCACGTAAATCGGTTAACAAATGGCTTTCGAAGCTAGCTTC/GAAGCTAGCTTCGAAAGCCATTTGTTAACCGATTTACGTGACG
Briefly: FRET melting competition. The note with it: 100 mM KCl; 10 mM lithium cacodylate pH 7.2; 10 equivalents ds43 lower F21T ΔT1/2 from 19.5 to 7 °C.

For the compound `C[n+]1ccn(-c2ccc(C(=C(c3ccc(-n4cc[n+](C)c4)cc3)c3ccc(-n4cc[n+](C)c4)cc3)c3ccc(-n4cc[n+](C)c4)cc3)cc2)c1`, the figures for the Ka in test [1] (100 mM KCl) and in test [1] (100 mM NaCl) were 2.4 (±1.0).10^5 M^-1 and 3.2 (±1.1).10^5 M^-1, respectively. In test [2], this compound registered a ΔT1/2 of 19.5 °C. Moreover, the binding result in test [3] is “weak”.

Source of the values: PMC6637260 (2019).
